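Dose response: 5 concentrations. Exposure: 48 h. Format: 96-well plates. Endpoint: linear interpolation; highest concentration if not reached. GI50 marks 50% less growth. The concentration for full growth arrest is given as TGI.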
Assays:
Experiment in all cases: DTP human tumour cell line panel, 48 h
HOP-62 NSCLC = tested on: HOP-62 NSCLC
IGROV1 ovarian = tested on: IGROV1 ovarian
A549 NSCLC = tested on: A549 NSCLC
SNB-19 CNS = tested on: SNB-19 CNS
786-0 renal = tested on: 786-0 renal
SW-620 colon = tested on: SW-620 colon
OVCAR-4 ovarian = tested on: OVCAR-4 ovarian
BT-549 breast = tested on: BT-549 breast
NCI/ADR-RES ovarian = tested on: NCI/ADR-RES ovarian
MDA-MB-231 breast = tested on: MDA-MB-231 breast

Structure (SMILES) | TGI (HOP-62 NSCLC) [µM] | TGI (IGROV1 ovarian) [µM] | TGI (A549 NSCLC) [µM] | TGI (SNB-19 CNS) [µM] | TGI (786-0 renal) [µM] | TGI (SW-620 colon) [µM] | TGI (OVCAR-4 ovarian) [µM] | TGI (BT-549 breast) [µM] | TGI (NCI/ADR-RES ovarian) [µM] | GI50 (HOP-62 NSCLC) [µM] | GI50 (IGROV1 ovarian) [µM] | GI50 (A549 NSCLC) [µM] | GI50 (SNB-19 CNS) [µM] | GI50 (786-0 renal) [µM] | GI50 (OVCAR-4 ovarian) [µM] | GI50 (SW-620 colon) [µM] | GI50 (MDA-MB-231 breast) [µM] | TGI (MDA-MB-231 breast) [µM] | GI50 (BT-549 breast) [µM] | GI50 (NCI/ADR-RES ovarian) [µM]
Cn1nc(-c2ccccc2)c(C(=O)/C=C/c2ccc(Cl)cc2)c(N2CCCC2)c1=O | 6.93 | 27.9 | 49.4 | 21.7 | 13.5 | 21.9 |  |  |  |  |  |  |  |  |  |  |  |  |  | 
Cc1ccc2nc(NC(=O)C(=O)CC(=O)c3cccc4ccccc34)sc2c1 | 56.9 | > 100 | > 100 | > 100 | 39.3 | > 100 | 32.1 |  |  |  |  |  |  |  |  |  |  |  |  | 
N#C/C(=C\c1ccc2[nH]ccc2c1)C(=O)c1ccc(O)c(O)c1 | > 100 | > 100 | > 100 | > 100 | > 100 | > 100 | > 100 | > 100 | > 100 |  |  |  |  |  |  |  |  |  |  | 
COC(=O)C(=O)C(C(=O)C(=O)Nc1cc(Cl)c(Cl)cc1Cl)c1nc2ccc([N+](=O)[O-])cc2[nH]c1=O (stereo not drawn) |  | > 100 | > 100 | > 100 | > 100 | > 100 | > 100 |  |  |  |  |  |  |  |  |  |  |  |  | 
CC(=O)[C-](C(C)=O)c1ccccc1.CC(=O)[C-](C(C)=O)c1ccccc1.CC(=O)[C-](C(C)=O)c1ccccc1.[Cl-].[Zr+4] | > 100 | > 100 | > 100 | > 100 | > 100 | > 100 | > 100 |  |  | > 100 | > 100 | > 100 | 82.9 | 38.7 | > 100 | > 100 |  |  |  | 
C/C(=N/O)c1ccc(Nc2cc(-n3ccnc3)c3ccccc3n2)cc1 | > 100 | 52.8 | 36.4 | > 100 | > 100 | > 100 |  | 84.7 | > 100 | 53.2 | 15.1 | 7.21 | 75.3 | 4.83 |  | 41.8 | 8.81 | 38.2 | 16.8 | 42.9
O=C(Nc1nc2ccccc2s1)c1cc(-c2ccc(F)cc2)n2nc(-c3ccccc3)cc2n1 | 7.02 | > 100 |  | > 100 | 5.1 |  |  | 6.5 |  | 2.24 | 4.36 |  | 5.21 | 2.12 |  |  | 2.36 | 5.61 | 2.05 | 
CC(C(N)=O)N(C)C(=O)c1cnc2ccccc2c1 (stereo not drawn) |  | > 100 | > 100 | > 100 | > 100 | > 100 | > 100 | > 100 | > 100 |  |  |  |  |  |  |  |  | > 100 |  | 
CCc1cc(Cc2ccc(C)c(NC(=O)C(=O)C3C(=O)NC(=O)NC3=O)c2CC)cc(C)c1NC(=O)C(=O)C1C(=O)NC(=O)NC1=O | > 100 | > 100 | > 100 | > 100 | > 100 | > 100 | > 100 |  |  |  |  |  |  |  |  |  |  |  |  | 
S=c1c2ccccc2c(=S)n2n1CC=CC2 |  | > 100 | > 100 | > 100 | > 100 | > 100 | > 100 |  |  |  |  |  |  |  |  |  |  |  |  | 
CCOC(=O)CC(NC(=O)c1ccc(N=NN(C)C)cc1)C(=O)OCC (stereo not drawn) | > 100 | > 100 | > 100 | > 100 | > 100 | > 100 | > 100 |  |  |  |  |  |  |  |  |  |  |  |  | 
CC(=O)c1c2c(cc3c1CC1(C3)Cc3cc4c(c(C(=O)O)c3C1)CCC4)CCC2 (stereo not drawn) | > 100 | > 100 | > 100 | > 100 | > 100 | > 100 | > 100 |  |  |  |  |  |  |  |  |  |  |  |  | 
COc1ccc(NC(=O)C2C(=O)N(c3ccc(OC)cc3)C(=O)/C2=N\NC(N)=O)cc1 (stereo not drawn) | 32.9 | 45 |  | > 100 | 49.3 | > 100 | 94.3 |  |  |  |  |  |  |  |  |  |  |  |  | 
CCCCNC1=C(C(=O)OCC)/C(=N/NC(=O)c2ccccc2O)CO1 | > 100 | > 100 | > 100 | > 100 | > 100 | > 100 | > 100 |  |  |  |  |  |  |  |  |  |  |  |  | 
Cc1noc(/N=C2\C=C(Nc3onc(C)c3C)C(=O)c3ccccc32)c1C | > 100 | > 100 | > 100 | > 100 | > 100 | > 100 | > 100 |  |  |  |  |  |  |  |  |  |  |  |  | 
O=C1C=Cc2ncccc2C1=O | > 82.9 | > 58.3 | > 67.6 | > 100 | 29.1 | 31.1 | 17.2 |  |  |  |  |  |  |  |  |  |  |  |  | 
CCCCCCCCCCCCCCCCCC(=O)NCC(COP(=O)(O)O)OCC (stereo not drawn) | 54.5 | > 100 | > 100 | 90.2 | > 100 | > 100 | > 100 |  |  |  |  |  |  |  |  |  |  |  |  | 
O=C(/C=C/c1ccccc1)CCC1C(=O)NC(=S)NC1=O |  |  | > 100 | > 100 | > 100 | > 100 |  | > 100 | > 100 |  |  |  |  |  |  |  |  | > 100 |  | 
Oc1ccc(Cl)cc1/C=N\NC(=S)N/N=C/c1cc(Cl)ccc1O | > 100 | > 100 | > 100 | > 100 | 4.52 | > 100 | 50.3 |  | 32.8 | 2.47 | 2.52 | 3.75 | 3.4 | 1.43 | 2.25 | 4.41 | 1.84 | 27.6 |  | 2.78
COc1cc2c(cc1OCCCOc1ccc(-c3nc4ccc(N5CCN(C)CC5)cc4[nH]3)cc1)N=C[C@@H]1CCCN1C2=O | < 0.01 |  | < 0.0222 | 17.1 | 0.524 | 15.2 | 17.2 | < 0.01 | 0.161 | < 0.01 |  | < 0.01 | < 0.01 | < 0.01 | < 0.01 | < 0.01 | < 0.01 | < 0.01 | < 0.01 | < 0.017
CC1=CC(=O)NP(=O)(C23CC4CC(CC(C4)C2)C3)N1 (stereo not drawn) | > 100 | > 100 |  | > 100 | > 100 | > 100 | > 100 |  |  |  |  |  |  |  |  |  |  |  |  | 
CC(C)(C)Sc1nnc(SC(C)(C)C)c2c(=O)[nH]nc(SC(C)(C)C)c12 | 27 | 22 | 17.9 | 23.8 | 22.3 | 20.8 | 10.5 |  |  |  |  |  |  |  |  |  |  |  |  | 
